From patent US12139492B2 (Endotarget Inc., priority 2021, dated 2024) come the findings set out here.

The term Dmax denotes the greatest extent of degradation seen. The term DC50 denotes the concentration at which degradation of the target reaches its halfway point.

Format in all cases: cell-based
The subject of one assay is Mino cells. The assay can be described thus: Antiproliferative effect, MTS cell viability assay, Mino cells. The settings on record: Homo sapiens, MINO, Mino mantle cell lymphoma cells; read-out: IC50 (anti-proliferation) Mino cells. Summed up: (§1)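 Mino and JeKo-1 mantle B-cell lymphoma lines were exposed to compound at 0, 0.001, 0.01, 0.1, 1 and 10 μM for 72 h. Viability was read by MTS reduction to formazan, measured as absorbance at 490 nm.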
In general terms: Tetrazolium dyes change colour on reduction, which living cells bring about.

In a further assay the test system is JeKo-1 cells. Kind of assay: Antiproliferative effect, MTS cell viability assay, JeKo-1 cells. The settings on record: Homo sapiens; JeKo-1 mantle cell lymphoma cells; read-out: IC50 (anti-proliferation) JeKO-1 cells. The gist of the method: as §1
The target in the next assay is BTK (Homo sapiens, UniProt Q06187). Kind of assay: BTK degradation, DC50 and Dmax of Table 1 (cell line not given). The settings on record: for DC50: concentration giving 50% reduction of BTK expression level. The arrangement: endogenous in cells.
Sequence of BTK (Q06187 whole entry): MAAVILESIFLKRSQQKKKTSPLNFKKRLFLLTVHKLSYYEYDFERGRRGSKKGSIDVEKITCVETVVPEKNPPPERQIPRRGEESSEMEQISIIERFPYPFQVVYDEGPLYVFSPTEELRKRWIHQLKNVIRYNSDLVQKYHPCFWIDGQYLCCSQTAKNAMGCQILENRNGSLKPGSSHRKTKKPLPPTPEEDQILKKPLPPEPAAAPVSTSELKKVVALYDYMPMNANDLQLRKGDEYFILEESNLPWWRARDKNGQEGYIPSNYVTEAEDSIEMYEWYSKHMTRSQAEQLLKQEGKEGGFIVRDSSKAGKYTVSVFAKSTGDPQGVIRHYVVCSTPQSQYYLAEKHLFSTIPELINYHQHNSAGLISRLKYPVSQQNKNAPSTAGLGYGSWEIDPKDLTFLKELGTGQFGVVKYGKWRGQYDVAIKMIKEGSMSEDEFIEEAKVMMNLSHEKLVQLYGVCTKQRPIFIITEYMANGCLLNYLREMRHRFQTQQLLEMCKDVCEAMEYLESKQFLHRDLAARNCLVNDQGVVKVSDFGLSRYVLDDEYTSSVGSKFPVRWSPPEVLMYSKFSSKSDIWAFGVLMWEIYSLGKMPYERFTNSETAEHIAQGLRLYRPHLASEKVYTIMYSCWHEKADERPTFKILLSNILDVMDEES

`Nc1ncnc2c1c(-c1ccc(Oc3ccccc3)cc1)nn2[C@@H]1CCCN(C2CCN(C(=O)N3CCC(CN4CCC(c5ccc6c(c5)CN(C5CCC(=O)NC5=O)C6=O)CC4)CC3)CC2)C1` (stereo partly drawn) [Compound 174, 3-(5-(1-((1-((R)-3-(4-amino-3-(4-phenoxyphenyl)-1H-pyrazolo[3,4-d]pyrimidin-1-yl)-[1,4′-bipiperidine]-1′-carbonyl)piperidin-4-yl)methyl)piperidin-4-yl)-1-oxoisoindolin-2-yl)piperidine-2,6-dione]: the IC50 in the assay with Mino cells and with JeKo-1 cells was 1000 to 10000 nM throughout. In addition, the Dmax on BTK is over 90%. In addition, the DC50 at BTK was in the range of 10 to 50 nM.

In the case of `Nc1ncnc2c1c(-c1ccc(Oc3ccccc3)cc1)nn2[C@@H]1CCCN(C2CCN(C(=O)N3CCN(CCN4CCN(c5ccc6c(c5)C(=O)N(C5CCC(=O)NC5=O)C6=O)CC4)CC3)CC2)C1` (stereo partly drawn) [Compound 175, 5-(4-(2-(4-((R)-3-(4-amino-3-(4-phenoxyphenyl)-1H-pyrazolo[3,4-d]pyrimidin-1-yl)-[1,4′-bipiperidine]-1′-carbonyl)piperazin-1-yl)ethyl)piperazin-1-yl)-2-(2,6-dioxopiperidin-3-yl)isoindoline-1,3-dione], the IC50 with Mino cells is 1000 to 10000 nM. The IC50 in the assay on JeKo-1 cells was 1000 to 10000 nM. On BTK, this compound registered a Dmax of over 90% and a DC50 of 10 to 50 nM.

As to `Nc1ncnc2c1c(-c1ccc(Oc3ccccc3)cc1)nn2[C@@H]1CCCN(C2CCN(C(=O)N3CCN(CCN4CCN(c5ccc6c(c5)CN(C5CCC(=O)NC5=O)C6=O)CC4)CC3)CC2)C1` (stereo partly drawn) [Compound 176, 3-(5-(4-(2-(4-((R)-3-(4-amino-3-(4-phenoxyphenyl)-1H-pyrazolo[3,4-d]pyrimidin-1-yl)-[1,4′-bipiperidine]-1′-carbonyl)piperazin-1-yl)ethyl)piperazin-1-yl)-1-oxoisoindolin-2-yl)piperidine-2,6-dione], the IC50 in the assay with Mino cells lay in the range of 1000 to 10000 nM. Moreover, in the assay on JeKo-1 cells, the IC50 lay within 1000 to 10000 nM. Moreover, at BTK, the Dmax is over 90% and the DC50 is over 50 nM.

`Nc1ncnc2c1c(-c1ccc(Oc3ccccc3)cc1)nn2[C@@H]1CCCN(C2CCN(C(=O)N3CCN(CCC4CCN(c5ccc6c(c5)C(=O)N(C5CCC(=O)NC5=O)C6=O)CC4)CC3)CC2)C1` (stereo partly drawn) [Compound 177, 5-(4-(2-(4-((R)-3-(4-amino-3-(4-phenoxyphenyl)-1H-pyrazolo[3,4-d]pyrimidin-1-yl)-[1,4′-bipiperidine]-1′-carbonyl)piperazin-1-yl)ethyl)piperidin-1-yl)-2-(2,6-dioxopiperidin-3-yl)isoindoline-1,3-dione]: the IC50 with Mino cells fell in the range of 1000 to 10000 nM. In addition, in the assay with JeKo-1 cells, the IC50 lay within 1000 to 10000 nM. On BTK, the Dmax was over 90% and the DC50 lay in the range of 10 to 50 nM.

With `Nc1ncnc2c1c(-c1ccc(Oc3ccccc3)cc1)nn2[C@@H]1CCCN(C2CCN(C(=O)N3CCN(CCC4CCN(c5ccc6c(c5)CN(C5CCC(=O)NC5=O)C6=O)CC4)CC3)CC2)C1` (stereo partly drawn) [Compound 178, 3-(5-(4-(2-(4-((R)-3-(4-amino-3-(4-phenoxyphenyl)-1H-pyrazolo[3,4-d]pyrimidin-1-yl)-[1,4′-bipiperidine]-1′-carbonyl)piperazin-1-yl)ethyl)piperidin-1-yl)-1-oxoisoindolin-2-yl)piperidine-2,6-dione], in the assay on Mino cells, the IC50 was over 10000 nM. Moreover, the IC50 in the assay on JeKo-1 cells was over 10000 nM. For the same compound, at BTK, the Dmax is over 75% and the DC50 is over 50 nM.

Regarding `Nc1ncnc2c1c(-c1ccc(Oc3ccccc3)cc1)nn2[C@@H]1CCCN(C2CCN(C(=O)N3CCN(CCN4CCC(c5ccc6c(c5)C(=O)N(C5CCC(=O)NC5=O)C6=O)CC4)CC3)CC2)C1` (stereo partly drawn) [Compound 179, 5-(1-(2-(4-((R)-3-(4-amino-3-(4-phenoxyphenyl)-1H-pyrazolo[3,4-d]pyrimidin-1-yl)-[1,4′-bipiperidine]-1′-carbonyl)piperazin-1-yl)ethyl)piperidin-4-yl)-2-(2,6-dioxopiperidin-3-yl)isoindoline-1,3-dione], in the assay on Mino cells, the IC50 fell in the range of 1000 to 10000 nM. Besides, the IC50 in the assay on JeKo-1 cells was over 10000 nM. Moreover, at BTK, the Dmax is over 75% and the DC50 lay within 10 to 50 nM.

On to `Nc1ncnc2c1c(-c1ccc(Oc3ccccc3)cc1)nn2[C@@H]1CCCN(C2CCN(C(=O)N3CCN(CCN4CCC(c5ccc6c(c5)CN(C5CCC(=O)NC5=O)C6=O)CC4)CC3)CC2)C1` (stereo partly drawn) [Compound 180, 3-(5-(1-(2-(4-((R)-3-(4-amino-3-(4-phenoxyphenyl)-1H-pyrazolo[3,4-d]pyrimidin-1-yl)-[1,4′-bipiperidine]-1′-carbonyl)piperazin-1-yl)ethyl)piperidin-4-yl)-1-oxoisoindolin-2-yl)piperidine-2,6-dione], for which the IC50 with Mino cells is 1000 to 10000 nM. The IC50 with JeKo-1 cells is over 10000 nM. Moreover, at BTK, the Dmax is over 75% and the DC50 is 10 to 50 nM.

For `Nc1ncnc2c1c(-c1ccc(Oc3ccccc3)cc1)nn2[C@@H]1CCCN(C2CCN(C(=O)N3CCC(CCN4CCN(c5ccc6c(c5)CN(C5CCC(=O)NC5=O)C6=O)CC4)CC3)CC2)C1` (stereo partly drawn) [Compound 182, 3-(5-(4-(2-(1-((R)-3-(4-amino-3-(4-phenoxyphenyl)-1H-pyrazolo[3,4-d]pyrimidin-1-yl)-[1,4′-bipiperidine]-1′-carbonyl)piperidin-4-yl)ethyl)piperazin-1-yl)-1-oxoisoindolin-2-yl)piperidine-2,6-dione], the IC50 in the assay with Mino cells was in the range of 1000 to 10000 nM. In addition, the IC50 in the assay on JeKo-1 cells lay within 1000 to 10000 nM. Besides, at BTK, the Dmax was over 75% and the DC50 fell in the range of 10 to 50 nM.

Turning to `Nc1ncnc2c1c(-c1ccc(Oc3ccccc3)cc1)nn2[C@@H]1CCCN(C2CCN(C(=O)N3CCC(CCN4CCC(c5ccc6c(c5)C(=O)N(C5CCC(=O)NC5=O)C6=O)CC4)CC3)CC2)C1` (stereo partly drawn) [Compound 183, 5-(1-(2-(1-((R)-3-(4-amino-3-(4-phenoxyphenyl)-1H-pyrazolo[3,4-d]pyrimidin-1-yl)-[1,4′-bipiperidine]-1′-carbonyl)piperidin-4-yl)ethyl)piperidin-4-yl)-2-(2,6-dioxopiperidin-3-yl)isoindoline-1,3-dione], the IC50 in the assay with Mino cells fell in the range of 1000 to 10000 nM. Besides, the IC50 in the assay with JeKo-1 cells was over 10000 nM. At BTK, this compound gave a Dmax of over 75% and a DC50 of 10 to 50 nM.

With `Nc1ncnc2c1c(-c1ccc(Oc3ccccc3)cc1)nn2[C@@H]1CCCN(C2CCN(C(=O)N3CCC(CCN4CCC(c5ccc6c(c5)CN(C5CCC(=O)NC5=O)C6=O)CC4)CC3)CC2)C1` (stereo partly drawn) [Compound 184, 3-(5-(1-(2-(1-((R)-3-(4-amino-3-(4-phenoxyphenyl)-1H-pyrazolo[3,4-d]pyrimidin-1-yl)-[1,4′-bipiperidine]-1′-carbonyl)piperidin-4-yl)ethyl)piperidin-4-yl)-1-oxoisoindolin-2-yl)piperidine-2,6-dione], in the assay on Mino cells, the IC50 fell in the range of 1000 to 10000 nM. In addition, the IC50 in the assay with JeKo-1 cells was 1000 to 10000 nM. On BTK, the Dmax is over 90% and the DC50 was in the range of 10 to 50 nM.

On to `Nc1ncnc2c1c(-c1ccc(Oc3ccccc3)cc1)nn2[C@@H]1CCCN(C2CCN(C(=O)N3CCC(CCC4CCN(c5ccc6c(c5)C(=O)N(C5CCC(=O)NC5=O)C6=O)CC4)CC3)CC2)C1` (stereo partly drawn) [Compound 185, 5-(4-(2-(1-((R)-3-(4-amino-3-(4-phenoxyphenyl)-1H-pyrazolo[3,4-d]pyrimidin-1-yl)-[1,4′-bipiperidine]-1′-carbonyl)piperidin-4-yl)ethyl)piperidin-1-yl)-2-(2,6-dioxopiperidin-3-yl)isoindoline-1,3-dione], for which the IC50 with Mino cells was over 10000 nM. For the same compound, the IC50 in the assay on JeKo-1 cells was over 10000 nM. At BTK, this compound returned a Dmax of over 75% and a DC50 of 10 to 50 nM.

With `Nc1ncnc2c1c(-c1ccc(Oc3ccccc3)cc1)nn2[C@@H]1CCCN(C2CCN(C(=O)N3CCC(CCC4CCN(c5ccc6c(c5)CN(C5CCC(=O)NC5=O)C6=O)CC4)CC3)CC2)C1` (stereo partly drawn) [Compound 186, 3-(5-(4-(2-(1-((R)-3-(4-amino-3-(4-phenoxyphenyl)-1H-pyrazolo[3,4-d]pyrimidin-1-yl)-[1,4′-bipiperidine]-1′-carbonyl)piperidin-4-yl)ethyl)piperidin-1-yl)-1-oxoisoindolin-2-yl)piperidine-2,6-dione], in the assay with Mino cells, the IC50 was 1000 to 10000 nM. The IC50 in the assay with JeKo-1 cells lay within 1000 to 10000 nM. For the same compound, at BTK, the Dmax was over 75% and the DC50 is 10 to 50 nM.

Take `Nc1ncnc2c1c(-c1ccc(Oc3ccccc3)cc1)nn2[C@@H]1CCCN(C2CCN(C(=O)N3CCN(CCCN4CCN(c5ccc6c(c5)C(=O)N(C5CCC(=O)NC5=O)C6=O)CC4)CC3)CC2)C1` (stereo partly drawn) [Compound 187, 5-(4-(3-(4-((R)-3-(4-amino-3-(4-phenoxyphenyl)-1H-pyrazolo[3,4-d]pyrimidin-1-yl)-[1,4′-bipiperidine]-1′-carbonyl)piperazin-1-yl)propyl)piperazin-1-yl)-2-(2,6-dioxopiperidin-3-yl)isoindoline-1,3-dione]: the IC50 in the assay on Mino cells fell in the range of 1000 to 10000 nM. Further, the IC50 in the assay on JeKo-1 cells lay in the range of 1000 to 10000 nM. Further, on BTK, the Dmax was over 75% and the DC50 is over 50 nM.

For the compound `Nc1ncnc2c1c(-c1ccc(Oc3ccccc3)cc1)nn2[C@@H]1CCCN(C2CCN(C(=O)N3CCN(CCCN4CCN(c5ccc6c(c5)CN(C5CCC(=O)NC5=O)C6=O)CC4)CC3)CC2)C1` (stereo partly drawn) [Compound 188, 3-(5-(4-(3-(4-((R)-3-(4-amino-3-(4-phenoxyphenyl)-1H-pyrazolo[3,4-d]pyrimidin-1-yl)-[1,4′-bipiperidine]-1′-carbonyl)piperazin-1-yl)propyl)piperazin-1-yl)-1-oxoisoindolin-2-yl)piperidine-2,6-dione], the IC50 in the assay with Mino cells and in the assay with JeKo-1 cells was 1000 to 10000 nM throughout. The Dmax on BTK is over 75%. This compound also came in with a DC50 at BTK of over 50 nM.

As to `Nc1ncnc2c1c(-c1ccc(Oc3ccccc3)cc1)nn2[C@@H]1CCCN(C2CCN(C(=O)N3CCN(CCCC4CCN(c5ccc6c(c5)C(=O)N(C5CCC(=O)NC5=O)C6=O)CC4)CC3)CC2)C1` (stereo partly drawn) [Compound 189, 5-(4-(3-(4-((R)-3-(4-amino-3-(4-phenoxyphenyl)-1H-pyrazolo[3,4-d]pyrimidin-1-yl)-[1,4′-bipiperidine]-1′-carbonyl)piperazin-1-yl)propyl)piperidin-1-yl)-2-(2,6-dioxopiperidin-3-yl)isoindoline-1,3-dione], the IC50 is 1000 to 10000 nM in the assay with Mino cells and over 10000 nM in the assay with JeKo-1 cells. The same compound returned a Dmax on BTK of over 75%. Further, the half-maximal degradation concentration (DC50) on BTK is over 50 nM.
